A word on the IC50: it is the concentration that inhibits the measured activity by half.

This passage reports IC50 results from US6875781B2, “Pyridines and uses thereof” (Cell Therapeutics, Inc., priority 2003, dated 2005).

The target of this experiment is T1, LPAAT-β (Homo sapiens, UniProt O15120).
T1 construct: the full-length human LPAAT-β cDNA was amplified by PCR from the DNA template pCE9.LPAAT-β; poly-histidine tag (N); made in house; host or cells: Sf9 insect cells (baculovirus, pFastBac HTc); membrane fraction used
T1 sequence (O15120 24-278): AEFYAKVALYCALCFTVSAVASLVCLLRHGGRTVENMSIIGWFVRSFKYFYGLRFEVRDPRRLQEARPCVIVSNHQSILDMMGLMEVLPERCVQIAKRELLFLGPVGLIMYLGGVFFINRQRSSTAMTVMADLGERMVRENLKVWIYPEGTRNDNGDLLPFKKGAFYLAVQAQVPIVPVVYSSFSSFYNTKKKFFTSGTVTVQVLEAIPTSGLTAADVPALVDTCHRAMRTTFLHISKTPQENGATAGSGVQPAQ
Nature of the experiment: LPAAT-β cell-free assay. In kind it is biochemical. The settings on record: Sf9 cell membrane overexpressing recombinant LPAAT-β. From the text:
For the construction of Baculovirus expression vectors, the full-length human LPAAT-β cDNA was amplified by PCR from the DNA template pCE9.LPAAT-β (West et at., DNA Cell Biol. 16:691-701 (1997)) using the primers 5′-[…] ATGGAGCTGTGGCCGTCTC-3′ (olpb1F; SEQ ID NO:1) and 5′-CAGGCTCTAG ACTACTGGGCCGGCTGCAC-3′ (olpb1R; SEQ ID NO:2). The ˜870 bp fragment generated was reamplified by PCR using the primers 5′[…] TCCGAAGAAGATC-3′ (olpb2F; SEQ ID NO:3) and 5′-CAGGCTCTAGCTACTGGGC CGGCTGCAC-3′ (olpb1R; SEQ ID NO:2). The ˜890 bp fragment generated as then cleaved with Sal I and Xba I for insertion into pFastBac™ HTc vector (Life Technologies, Gaithersberg, Md.) between the Sal I and Xba I sites for the generation of the plasmid pFB.LPAAT-β. This plasmid was then transformed into E. coli DH10Bac™ (Life Technologies, Gaithersberg, Md.) for the generation of recombinant Bacmid DNA for transfection in HighFive (Invitrogen, San Diego, Calif.) or SF9 insect cells for the production of recombinant Baculovirus stocks using the protocol described in the Bac-to-Bac® Baculovirus Expression System (Life Technologies, Gaithersberg, Md.), a eukaryotic expression system for generating recombinant baculovirus through site-specific transposition in E. coli. Viral stocks harvested from the transfected cells can then be used to infect fresh insect cells for the subsequence expression of LPAAT-β fusion protein with a poly-histidine tag and a myc-epitope near its N-terminus. The membrane fraction from these Sf9 cells would be the source of LPAAT enzyme.
For the preparation of membranes from Sf9 Cells, all steps are performed on ice or at 4° C. Sf9 cell pellets (˜10^8 cells) were thawed and resuspended in 1-2 ml of buffer A (20 mM Hepes, pH 7.5, 1 mM DTT, 1 mM EDTA, 20% w/v glycerol, 1 mM Benzamidine, 1 μg/ml soybean trypsin inhibitor (SBTI), 1 μg/ml pepstatin A) w/o DTT but with 1 mM Pefabloc. The cells were lysed by sonication using a Branson Sonifier at output=2, duty cycle=2, 10 pulses each at 10 s. with the tip of small sonicator probe submerged but not touching the walls. DTT was then added to 1 mM from a 1 M stock. The samples were centrifuged at 1500 rpm for 5 min. The low speed supernatant was saved and centrifuged (TLA 100.3 rotor, polycarbonate tubes, 2 ml/tube or 1.5 ml/tube minimum) at 100000×g for 1 hr. The high speed pellet was resuspend in Buffer A with a probe sonicator (10 pulses @ output #2 and duty cycle 20%) as a source of LPAAT enzyme.
LPAAT-β catalyzes the transfer of an acyl group from a donor such as acyl-CoA to LPA. The transfer of the acyl group from acyl-CoA to LPA leads to the release of free CoA, which can be reacted with the thiol reagent, 5,5′-dithiobis(2-nitrobenzoic acid) (DTNB). The reaction between DTNB and the free sulfhydryl group from CoA generates a yellow-colored product, 3-carboxylato-4-nitrothiophenolate (CNP), that absorbs at 413 nm. LPAAT-β derived from Sf9 cell membrane overexpressing LPAAT-β were resuspended in HEPES saline buffer (20 mM HEPES pH 7.5, 150 mM NaCl), 1 mg/ml BSA and 72 μl aliquots were distributed into 96-well microtiter plates. 8 μl of compound of interest at 200 μM dissolved in 100% DMSO was added into each well. 20 μl of 1 mM 18:1-CoA and 1 mM sn-1-18:1 lysoPA was then added to each well to initiate the reaction and allowed to run at room temperature for 25 min. 100 μl of 1 mM DTNB in 100% ethanol was then added to each well to quench the reaction and for color development. The absorbance at 405 nm, measured using a spectrophotometer plate reader, is proportional to the activity of LPAAT-β in the sample. This colorimetric assay was used for the high throughput screening of LPAAT inhibitors.
The radiometric assay was carried out in Sf9 cell membrane overexpressing LPAAT-β resuspended in HEPES-saline buffer, pH 7.5, 1 mg/ml BSA, 1 mM EDTA and 200 μM [^14C]18:1-CoA and 200 μM sn-1-18:1 lysoPA. […]

As to `COc1ccc(Cl)cc1-c1cc(Nc2ccc(C)cc2)cc(NC(C)=O)n1` [Example 5, N-[6-(5-chloro-2-methoxy-phenyl)-4-p-tolylamino-pyridin-2-yl]-acetamide], the IC50 turned out to be 34000 nM. As for `COc1ccc(Cl)cc1-c1cc(N)cc(Nc2ccc(C)cc2)n1` [Example 3, 6-(5-Chloro-2-methoxy-phenyl)-N*2*-p-tolyl-pyridine-2,4-diamine], the IC50 was determined as 29000 nM. On to `COc1ccc(Cl)cc1-c1cc(Nc2ccc(Cl)cc2)cc(N)n1` [Example 7, 6-(5-Chloro-2-methoxy-phenyl)-N*4*-(4-chloro-phenyl)-pyridine-2,4-diamine], for which the IC50 is 18000 nM.

With `CCOc1ccc(Cl)cc1-c1cc(N)nc(Nc2ccc(C)cc2)c1` [Example 10], the half-inhibitory concentration (IC50) is 490 nM. For `CCOc1ccc(Cl)cc1-c1cc(N)nc(Nc2ccc(C=O)cc2)c1` [Example 12, 4-[6-Amino-4-(5-chloro-2-ethoxy-phenyl)-pyridin-2-ylamino]-benzaldehyde], the IC50 was found to be 50 nM. Turning to `COc1ccc(Cl)cc1-c1cc(N)nc(Nc2ccc(C=O)cc2)c1` [Example 14, 4-[6-Amino-4-(5-chloro-2-methoxy-phenyl)-pyridin-2-ylamino]-benzaldehyde], the IC50 came to 260 nM. Consider `CCOc1ccc(Cl)cc1-c1cc(N)nc(Nc2ccc(Cl)cc2)c1` [Example 11, 4-(5-Chloro-2-ethoxy-phenyl)-N-(4-chloro-phenyl)-pyridine-2,6-diamine], for which the IC50 is 50 nM. To `COc1ccc(Cl)cc1-c1cc(Cl)cc(Nc2ccc(C)cc2)n1` [Example 2, [4-Cloro-6-(5-chloro-2-methoxy-phenyl)-pyridin-2-yl]-p-tolyl-amine] belongs more than 40000 nM; to `COc1ccc(Cl)cc1-c1cc(Nc2ccc(C)cc2)cc(N)n1` [Example 6, 6-(5-Chloro-2-methoxy-phenyl)-N*4*-p-tolyl-pyridine-2,4-diamine], 35000 nM. For `COc1ccc(Cl)cc1-c1cc(N)nc(Nc2ccc(C)cc2)c1` [Example 9], the IC50 worked out at 240 nM. On to `COc1ccc(Cl)cc1-c1cc(N)nc(Nc2ccc(Cl)cc2)c1` [Example 8, 4-(5-Chloro-2-methoxy-phenyl)-N-(4-chloro-phenyl)-pyridine-2,6-diamine], for which the IC50 came out at 40 nM.

As for `COc1ccc(Cl)cc1-c1cc(Nc2ccc(C)cc2)cc(Cl)n1` [Example 1, [2-Chloro-6-(5-chloro-2-methoxy-phenyl)-pyridin-4-yl]-p-tolyl-amine], the IC50 amounted to 200 nM. The figure for `CCOc1ccc(Cl)cc1-c1cc(N)nc(Nc2ccc(CO)cc2)c1` [Example 13, {4-[6-Amino-4-(5-chloro-2-ethoxy-phenyl)-pyridin-2-ylamino]-phenyl}-methanol] is 100 nM; for `COc1ccc(Cl)cc1-c1cc(N)cc(Nc2ccc(Cl)cc2)n1` [Example 4, 6-(5-Chloro-2-methoxy-phenyl)-N*2*-(4-chloro-phenyl)-pyridine-2,4-diamine] it is 6500 nM.
